Measured values reported in ChEMBL document CHEMBL4351006, “A new exploration towards aminothiazolquinolone oximes as potentially multi-targeting antibacterial agents: Design, synthesis and evaluation acting on microbes, DNA, HSA and topoisomerase IV” (Eur J Med Chem, 2019).

Tests used:
Format in all cases: functional
[1] = tested on: Klebsiella pneumoniae; assay: Potentiation of cefixime-mediated antibacterial activity against Klebsiella pneumoniae assessed as cefixime MIC incubated for 24 hrs by two fold serial dilution method (reference value: 15.76 10^-3 mM)
[2] = tested on: Candida tropicalis; assay: Potentiation of fluconazole-mediated antifungal activity against Candida tropicalis assessed as fluconazole MIC incubated for 24 hrs by two fold serial dilution method (reference value: 26.12 10^-3 mM)
[3] = tested on: Staphylococcus aureus; assay: Potentiation of cefixime-mediated antibacterial activity against methicillin resistant Staphylococcus aureus N315 assessed as cefixime MIC incubated for 24 hrs by two fold serial dilution method (reference value: 31.52 10^-3 mM); conditions: N315, 24 h
[4] = tested on: Staphylococcus aureus; assay: Potentiation of cefixime-mediated antibacterial activity against Staphylococcus aureus assessed as cefixime MIC incubated for 24 hrs by two fold serial dilution method (reference value: 31.52 10^-3 mM)
[5] = tested on: Candida albicans; assay: Potentiation of fluconazole-mediated antifungal activity against Candida albicans assessed as fluconazole MIC incubated for 24 hrs by two fold serial dilution method (reference value: 13.06 10^-3 mM)

Q: For C=CC1=C(C(=O)O)N2C(=O)[C@@H](NC(=O)/C(=N\OCC(=O)O)c3csc(N)n3)[C@H]2SC1 [CEFIXIME], which MIC [1] is on record?
A: 7.88 µM

Q: And the MIC [2]?
A: 26.1 µM

Q: What about the MIC [3] of the same compound?
A: 3.94 µM

Q: What about the MIC [4] of the same compound?
A: 7.88 µM

Q: What about the MIC [5] of the same compound?
A: 3.26 µM
